Source: patent US10308645B2, “Piperidine oxadiazole and thiadiazole orexin receptor antagonists” (MERCK SHARP & DOHME CORP., priority 2014, dated 2019)
Blank lines part the entries; values can stand above or below the compound they belong to.

What was measured:
[1] = biological target: hOX1R (orexin-1 receptor) (Homo sapiens, UniProt O43613); assay: FLIPR Ca2+ Flux Assay, hOX1R; format: cell-based; conditions: CHO cells expressing the receptor; agonist Ala-6,12 human orexin-A
human orexin-2 receptor = human orexin-2 receptor (Homo sapiens (Human), UniProt O43614); assay: FLIPR Ca2+ Flux Assay, hOX2R; format: cell-based; conditions: CHO cells expressing the receptor; agonist Ala-6,12 human orexin-A
Procedure: The utility of the compounds in accordance with the present invention as orexin receptor OX1R and/or OX2R antagonists may be readily determined without undue experimentation by methodology well known in the art, including the “FLIPR Ca^2+ Flux Assay” (Okumura et al., Biochem. Biophys. Res. Comm. 280:976-981, 2001). In a typical experiment the OX1 and OX2 receptor antagonistic activity of the compounds of the present invention was determined in accordance with the following experimental method. For intracellular calcium measurements, Chinese hamster ovary (CHO) cells expressing the rat orexin-1 receptor or the human orexin-2 receptor, are grown in Iscove's modified DMEM containing 2 mM L-glutamine, […], 1% hypoxanthine-thymidine supplement, 100 U/ml penicillin, 100 μg/ml streptomycin and 10% heat-inactivated fetal calf serum (FCS). The cells are seeded at 20,000 cells/well into Becton-Dickinson black 384-well clear bottom sterile plates coated with poly-D-lysine. All reagents were from GIBCO-Invitrogen Corp. The seeded plates are incubated overnight at 37° C. and 5% CO2. Ala-6,12 human orexin-A as the agonist is prepared as a 1 mM stock solution in 1% bovine serum albumin (BSA) and diluted in assay buffer (HBSS containing 20 mM HEPES, 0.1% BSA and 2.5 mM probenecid, pH7.4) for use in the assay at a final concentration of 70 pM. Test compounds are prepared as 10 mM stock solution in DMSO, then diluted in 384-well plates, first in DMSO, then assay buffer. On the day of the assay, cells are washed 3 times with 100 μl assay buffer and then incubated for 60 min (37° C., 5% CO2) in 60 μl assay buffer containing 1 μM Fluo-4AM ester, 0.02% pluronic acid, and 1% BSA. The dye loading solution is then aspirated and cells are washed 3 times with 100 μl assay buffer. 30 μl of that same buffer is left in each well. Within the Fluorescent Imaging Plate Reader (FLIPR, Molecular Devices), test compounds are added to the plate in a volume of 25 μl, incubated for 5 min and finally 25 μl of agonist is added. Fluorescence is measured for each well at 1 second intervals for 5 minutes and the height of each fluorescence peak is compared to the height of the fluorescence peak induced by […] Ala-6,12 orexin-A with buffer in place of antagonist. For each antagonist, IC50 value (the concentration of compound needed to inhibit 50% of the agonist response) is determined. Alternatively, compound potency can be assessed by a radioligand binding assay (described in Bergman et. al. Bioorg. Med. Chem. Lett. 2008, 18, 1425-1430) in which the inhibition constant (Ki) is determined in membranes prepared from CHO cells expressing either the OX1 or OX2 receptor. The intrinsic orexin receptor antagonist activity of a compound which may be used in the present invention may be determined by these assays.

Chain of human orexin-2 receptor (O43614 whole entry): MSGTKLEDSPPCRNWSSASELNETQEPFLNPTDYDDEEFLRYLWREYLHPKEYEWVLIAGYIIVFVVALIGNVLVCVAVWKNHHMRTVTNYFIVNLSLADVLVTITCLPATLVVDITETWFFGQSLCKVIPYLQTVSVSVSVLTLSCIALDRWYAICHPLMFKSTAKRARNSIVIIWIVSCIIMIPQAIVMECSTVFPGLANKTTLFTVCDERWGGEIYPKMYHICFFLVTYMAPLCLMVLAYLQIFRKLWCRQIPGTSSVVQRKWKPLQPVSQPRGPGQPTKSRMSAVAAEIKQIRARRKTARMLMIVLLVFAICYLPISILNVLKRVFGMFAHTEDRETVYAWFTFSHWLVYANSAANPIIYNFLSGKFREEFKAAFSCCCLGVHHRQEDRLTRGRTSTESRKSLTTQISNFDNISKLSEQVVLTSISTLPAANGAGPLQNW

Structure (SMILES): C[C@@H]1CC[C@@H](c2nsc(C(C)(C)O)n2)CN1C(=O)c1ccccc1CS(C)(=O)=O [Example 33, 2-{3-[(3R,6R)-6-methyl-1-({2-[(methylsulfonyl)methyl]phenyl}carbonyl)piperidin-3-yl]-1,2,4-thiadiazol-5-l}propan-2-ol]
IC50 [1]: > 10000 nM
IC50 (human orexin-2 receptor): 194 nM

Structure (SMILES): C[C@@H]1CC[C@@H](c2noc(C(C)(C)O)n2)CN1C(=O)c1ccccc1-n1ncnn1 [Example 12, 2-{3-[(3R,6R)-6-methyl-1-{[2-(2H-tetrazol-2-yl)phenyl]carbonyl}piperidin-3-yl]-1,2,4-oxadiazol-5-yl}propan-2-ol]
IC50 [1]: > 10000 nM
IC50 (human orexin-2 receptor): 184 nM

Structure (SMILES): C[C@@H]1CC[C@@H](c2noc(C(C)(C)O)n2)CN1C(=O)c1cccnc1OCC(F)(F)F [Example 16, 2-{3-[(3R,6R)-6-methyl-1-{[2-(2,2,2-trifluoroethoxy)pyridin-3-yl]carbonyl}piperidin-3-yl]-1,2,4-oxadiazol-5-yl}propan-2-ol]
IC50 [1]: > 10000 nM
IC50 (human orexin-2 receptor): 87 nM

Structure (SMILES): CCc1nc([C@@H]2CC[C@@H](C)N(C(=O)c3ccccc3-n3nccn3)C2)no1 [Example 3, (2R,5R)-5-(5-ethyl-1,2,4-oxadiazol-3-yl)-2-methyl-1-{[2-(2H-1,2,3-triazol-2-yl)phenyl]carbonyl}piperidine]
IC50 [1]: > 10000 nM
IC50 (human orexin-2 receptor): 315 nM

Structure (SMILES): C[C@@H]1CC[C@@H](c2nsc(C(C)(C)O)n2)CN1C(=O)c1cscc1-c1ncccn1 [Example 42, 2-(3-{(3R,6R)-6-methyl-1-[(4-pyrimidin-2-ylthiophen-3-yl)carbonyl]piperidin-3-yl}-1,2,4-thiadiazol-5-yl)propan-2-ol]
IC50 [1]: > 10000 nM
IC50 (human orexin-2 receptor): 83 nM

Structure (SMILES): C[C@@H]1CC[C@@H](c2noc(C3CC3)n2)CN1C(=O)c1ccccc1-n1nccn1 [Example 1, (2R,5R)-5-(5-Cyclopropyl-1,2,4-oxadiazol-3-yl)-2-methyl-1-{[2-(2H-1,2,3-triazol-2-yl)phenyl]carbonyl}piperidine]
IC50 [1]: > 10000 nM
IC50 (human orexin-2 receptor): 329 nM

IC50 (human orexin-2 receptor): 124 nM
Structure (SMILES): C[C@@H]1CC[C@@H](c2nsc(C(C)(C)O)n2)CN1C(=O)c1cccnc1OCC(F)(F)F [Example 38, 2-{3-[(3R,6R)-6-methyl-1-{[2-(2,2,2-trifluoroethoxy)pyridin-3-yl]carbonyl}piperidin-3-yl]-1,2,4-thiadiazol-5-yl}propan-2-ol]

Structure (SMILES): C[C@@H]1CC[C@@H](c2nsc(C(C)(C)O)n2)CN1C(=O)c1ccccc1OC(F)F [Example 36, 2-{3-[(3R,6R)-1-{[2-(difluoromethoxy)phenyl]carbonyl}-6-methylpiperidin-3-yl]-1,2,4-thiadiazol-5-yl}propan-2-ol]
IC50 [1]: > 10000 nM
IC50 (human orexin-2 receptor): 243 nM

Structure (SMILES): C[C@@H]1CC[C@@H](c2noc([C@@](C)(O)C(F)(F)F)n2)CN1C(=O)c1ccccc1-n1nccn1 [Example 10, (2R)-1,1,1-Trifluoro-2-{3-[(3R,6R)-6-methyl-1-{[2-(2H-1,2,3-triazol-2-yl)phenyl]carbonyl}piperidin-3-yl]-1,2,4-oxadiazol-5-yl}propan-2-ol]
IC50 [1]: 2240 nM
IC50 (human orexin-2 receptor): 97 nM

Structure (SMILES): C[C@@H]1CC[C@@H](c2noc(C(C)(C)O)n2)CN1C(=O)c1ccccc1OC(F)(F)F [Example 15, 2-{3-[(3R,6R)-6-methyl-1-{[2-(trifluoromethoxy)phenyl]carbonyl}piperidin-3-yl]-1,2,4-oxadiazol-5-yl}propan-2-ol]
IC50 [1]: > 10000 nM
IC50 (human orexin-2 receptor): 86 nM

Structure (SMILES): C[C@@H]1CC[C@@H](c2noc(C(C)(C)O)n2)CN1C(=O)c1cscc1-n1nccn1 [Example 14, 2-{3-[(3R,6R)-6-methyl-1-{[4-(2H-1,2,3-triazol-2-yl)thiophen-3-yl]carbonyl}piperidin-3-yl]-1,2,4-oxadiazol-5-yl}propan-2-ol]
IC50 [1]: > 10000 nM
IC50 (human orexin-2 receptor): 48 nM

Structure (SMILES): C[C@@H]1CC[C@@H](c2nsc(C(C)(C)O)n2)CN1C(=O)c1cscc1-n1nccn1 [Example 31, 2-{3-[(3R,6R)-6-methyl-1-{[4-(2H-1,2,3-triazol-2-yl)thiophen-3-yl]carbonyl}piperidin-3-yl]-1,2,4-thiadiazol-5-yl}propan-2-ol]
IC50 [1]: > 10000 nM
IC50 (human orexin-2 receptor): 110 nM

Structure (SMILES): COC(C)(C)c1nc([C@@H]2CC[C@@H](C)N(C(=O)c3ccccc3-n3nccn3)C2)ns1 [Example 43, (2R,5R)-5-[5-(1-methoxy-1-methylethyl)-1,2,4-thiadiazol-3-yl]-2-methyl-1-{[2-(2H-1,2,3-triazol-2-yl)phenyl]carbonyl}piperidine]
IC50 [1]: 1410 nM
IC50 (human orexin-2 receptor): 39 nM

Structure (SMILES): C[C@@H]1CC[C@@H](c2nsc(C(C)(C)O)n2)CN1C(=O)c1ccccc1C1(C#N)CC1 [Example 32, 1-[2-({(2R,5R)-5-[5-(1-hydroxy-1-methylethyl)-1,2,4-thiadiazol-3-yl]-2-methylpiperidin-1-yl}carbonyl)phenyl]cyclopropane-carbonitrile]
IC50 [1]: 2420 nM
IC50 (human orexin-2 receptor): 18 nM

Structure (SMILES): C[C@@H]1CC[C@@H](c2nc(C(C)(C)C)no2)CN1C(=O)c1ccccc1-n1nccn1 [Example 25, (2R,5R)-5-(3-tert-Butyl-1,2,4-oxadiazol-5-yl)-2-methyl-1-{[2-(2H-1,2,3-triazol-2-yl)phenyl]carbonyl}piperidine]
IC50 [1]: 1150 nM
IC50 (human orexin-2 receptor): 87 nM

Structure (SMILES): C[C@@H]1CC[C@@H](c2noc([C@@H](O)C(F)(F)F)n2)CN1C(=O)c1ccccc1-n1nccn1 [Example 9, (1R)-2,2,2-Trifluoro-1-{3-[(3R,6R)-6-methyl-1-{[2-(2H-1,2,3-triazol-2-yl)phenyl]carbonyl}piperidin-3-yl]-1,2,4-oxadiazol-5-yl}ethanol]
IC50 [1]: 1010 nM
IC50 (human orexin-2 receptor): 77 nM

Structure (SMILES): C[C@@H]1CC[C@@H](c2noc(C(C)(C)O)n2)CN1C(=O)c1cscc1-c1ncccn1 [Example 24, 2-(3-{(3R,6R)-6-methyl-1-[(4-pyrimidin-2-ylthiophen-3-yl)carbonyl]piperidin-3-yl}-1,2,4-oxadiazol-5-yl)propan-2-ol]
IC50 [1]: > 10000 nM
IC50 (human orexin-2 receptor): 76 nM

Structure (SMILES): C[C@@H]1CC[C@@H](c2noc(C(C)(C)O)n2)CN1C(=O)c1ccccc1C1(C#N)CC1 [Example 11, 1-[2-({(2R,5R)-5-[5-(1-hydroxy-1-methylethyl)-1,2,4-oxadiazol-3-yl]-2-methylpiperidin-1-yl}carbonyl)phenyl]cyclopropanecarbonitrile]
IC50 [1]: 2290 nM
IC50 (human orexin-2 receptor): 22 nM

Structure (SMILES): C[C@@H]1CC[C@@H](c2noc(C(C)(C)O)n2)CN1C(=O)c1ccsc1-n1nccn1 [Example 13, 2-{3-[(3R,6R)-6-methyl-1-{[2-(2H-1,2,3-triazol-2-yl)thiophen-3-yl]carbonyl}piperidin-3-yl]-1,2,4-oxadiazol-5-yl}propan-2-ol]
IC50 [1]: > 10000 nM
IC50 (human orexin-2 receptor): 39 nM

Structure (SMILES): C[C@@H]1CC[C@@H](c2nsc(C(C)(C)O)n2)CN1C(=O)c1ccsc1-n1nccn1 [Example 29, 2-{3-[(3R,6R)-6-Methyl-1-{[2-(2H-1,2,3-triazol-2-yl)thiophen-3-yl]carbonyl}piperidin-3-yl]-1,2,4-thiadiazol-5-yl}propan-2-ol]
IC50 [1]: > 10000 nM
IC50 (human orexin-2 receptor): 88 nM

Structure (SMILES): C[C@@H]1CC[C@@H](c2nsc(C(C)(C)O)n2)CN1C(=O)c1ccccc1-n1ncnn1 [Example 34, 2-{3-[(3R,6R)-6-methyl-1-{[2-(2H-tetrazol-2-yl)phenyl]carbonyl}piperidin-3-yl]-1,2,4-thiadiazol-5-yl}propan-2-ol]
IC50 [1]: > 10000 nM
IC50 (human orexin-2 receptor): 339 nM

Structure (SMILES): C[C@@H]1CC[C@@H](c2noc(C(C)(C)O)n2)CN1C(=O)c1ccccc1-n1nccn1 [Example 5, 2-{3-[(3R,6R)-6-Methyl-1-{[2-(2H-1,2,3-triazol-2-yl)phenyl]carbonyl}piperidin-3-yl]-1,2,4-oxadiazol-5-yl}propan-2-ol]
IC50 [1]: 3180 nM
IC50 (human orexin-2 receptor): 19 nM

Structure (SMILES): COC(C)(C)c1nc([C@@H]2CC[C@@H](C)N(C(=O)c3ccccc3-n3nccn3)C2)no1 [Example 8, (2R,5R)-5-[5-(1-Methoxy-1-methylethyl)-1,2,4-oxadiazol-3-yl]-2-methyl-1-{[2-(2H-1,2,3-triazol-2-yl)phenyl]carbonyl}piperidine]
IC50 [1]: 3700 nM
IC50 (human orexin-2 receptor): 98 nM

Structure (SMILES): C[C@@H]1CC[C@@H](c2nsc(C(C)(C)O)n2)CN1C(=O)c1ccccc1-c1ncccn1 [Example 41, 2-(3-{(3R,6R)-6-Methyl-1-[(2-pyrimidin-2-ylphenyl)carbonyl]piperidin-3-yl}-1,2,4-thiadiazol-5-yl)propan-2-ol]
IC50 [1]: > 10000 nM
IC50 (human orexin-2 receptor): 48 nM
